According to the NIST ThermoML archive (doi:10.1021/je034087q):

Assay: xn = mol fraction of the nth substance listed
Conditions: 323.15 K, Fluid (supercritical or subcritical phases)

CC(C)=O [acetone] + O=C=O
Conditions | mass density [kg/m3]
9680 kPa, x2 = 0.952 | 588
9710 kPa, x2 = 0.902 | 707
9750 kPa, x2 = 0.933 | 656
9750 kPa, x2 = 0.952 | 594
9840 kPa, x2 = 0.948 | 625
9850 kPa, x2 = 0.952 | 603
9870 kPa, x2 = 0.902 | 711
9900 kPa, x2 = 0.811 | 790
9900 kPa, x2 = 0.882 | 743
9900 kPa, x2 = 0.933 | 664
9940 kPa, x2 = 0.952 | 611
9960 kPa, x2 = 0.772 | 803
10020 kPa, x2 = 0.902 | 715
10030 kPa, x2 = 0.948 | 638
10050 kPa, x2 = 0.933 | 669
10100 kPa, x2 = 0.952 | 623
10160 kPa, x2 = 0.902 | 719
10220 kPa, x2 = 0.933 | 678
10290 kPa, x2 = 0.882 | 748
10290 kPa, x2 = 0.948 | 651
10320 kPa, x2 = 0.952 | 636
10360 kPa, x2 = 0.902 | 722
10420 kPa, x2 = 0.933 | 684
10440 kPa, x2 = 0.576 | 818
10490 kPa, x2 = 0.811 | 796
10540 kPa, x2 = 0.772 | 807
10570 kPa, x2 = 0.902 | 727
10590 kPa, x2 = 0.952 | 649
10600 kPa, x2 = 0.948 | 666
10630 kPa, x2 = 0.882 | 754
10640 kPa, x2 = 0.933 | 693
10780 kPa, x2 = 0.902 | 733
10800 kPa, x2 = 0.186 | 785
10880 kPa, x2 = 0.933 | 699
10920 kPa, x2 = 0.952 | 663
10950 kPa, x2 = 0.882 | 761
10980 kPa, x2 = 0.948 | 679
10990 kPa, x2 = 0.811 | 801
11000 kPa, x2 = 0.902 | 736
11060 kPa, x2 = 0.772 | 811
11160 kPa, x2 = 0.933 | 707
11260 kPa, x2 = 0.902 | 740
11280 kPa, x2 = 0.952 | 678
11440 kPa, x2 = 0.882 | 764
11460 kPa, x2 = 0.933 | 714
11480 kPa, x2 = 0.811 | 805
11480 kPa, x2 = 0.948 | 696
11500 kPa, x2 = 0.902 | 744
11640 kPa, x2 = 0.383 | 806
11760 kPa, x2 = 0.772 | 815
11760 kPa, x2 = 0.902 | 751
11780 kPa, x2 = 0.952 | 694
11800 kPa, x2 = 0.933 | 724
11870 kPa, x2 = 0.576 | 825
11870 kPa, x2 = 0.882 | 769
